The source of these data is US10975119B2, “Selective cysteine protease inhibitors and uses thereof” (Genesis Technologies Limited, priority 2011, dated 2021).

Read-outs that look alike come from different tables or passages of the source.

Holding throughout (type): biochemical
The target of one experiment is T1, Caspase-7 (Homo sapiens, UniProt P55210).
T1 construct: mixing the compounds with the respective active caspases; purchased BioVision K157-100
T1 sequence (P55210 24-198 limits assumed): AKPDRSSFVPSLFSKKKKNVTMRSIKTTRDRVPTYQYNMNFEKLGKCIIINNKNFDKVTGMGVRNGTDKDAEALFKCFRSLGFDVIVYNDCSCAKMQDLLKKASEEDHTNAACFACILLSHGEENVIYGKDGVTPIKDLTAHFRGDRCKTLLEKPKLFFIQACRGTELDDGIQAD
T1 sequence (P55210 207-303 limits assumed): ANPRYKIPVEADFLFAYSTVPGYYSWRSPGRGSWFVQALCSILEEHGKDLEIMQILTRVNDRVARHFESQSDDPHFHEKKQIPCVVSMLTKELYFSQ
Put plainly: Caspase-7 inhibitor screening assay (BioVision kit, DEVD-AFC). As to conditions: read-out: IC50 Casp7. As for the experimental part: (§1) The efficacy of an array of compounds as an inhibitor of the activity of Caspases 1 through 10 were assessed by using the respective Caspase Inhibitor Drug Screening Kits (Caspase-1 Catalog #: K151-100, Caspase-2 Catalog #: K152-100, Caspase-3 Catalog #: K153-100, Caspase-4 Catalog #: K154-100, Caspase-5 Catalog #: K155-100, Caspase-6 Catalog #: K156-100, Caspase-7 Catalog #: K157-100, Caspase-8 Catalog #: K158-100, Caspase-9 Catalog #: K159-100, Caspase-10 Catalog #: K160-100, BioVision) following the instructions of the manufacturer. […] Active caspases cleaved their respective synthetic substrates to release free AFC, which was then quantified by fluorometry.
(§2) Briefly, the compounds were first tested at 2 concentrations (10 uM and 100 uM final) to determine if there is a hit. […] Each condition was tested in duplicates. […] For some samples, a smaller range of concentrations was tested depending on the % Inhibition results at 10 uM and 100 uM. Results were summarized in Tables 2, 3, and 4 herein after. Table 2 represents the IC50 values (uM) of the test compounds as inhibitors of the activity of the various caspases.
(§3) (*) RFU (no inhibitor control)—RFU (compound at a specific concentration)
(§4) RFU (no inhibitor control)

Another experiment concerns the target T2, Caspase-4 (Homo sapiens, UniProt P49662).
T2 construct: mixing the compounds with the respective active caspases; purchased BioVision K154-100
T2 sequence (P49662 81-270 limits assumed): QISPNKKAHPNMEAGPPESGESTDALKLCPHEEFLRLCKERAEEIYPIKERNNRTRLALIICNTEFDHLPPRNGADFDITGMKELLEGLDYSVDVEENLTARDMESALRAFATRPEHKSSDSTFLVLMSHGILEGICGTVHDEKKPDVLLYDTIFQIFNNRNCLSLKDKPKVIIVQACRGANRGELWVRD
T2 sequence (P49662 290-377 limits assumed): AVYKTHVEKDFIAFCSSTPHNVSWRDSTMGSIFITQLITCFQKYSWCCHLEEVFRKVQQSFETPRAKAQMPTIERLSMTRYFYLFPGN
Put plainly: Caspase-4 inhibitor screening assay (BioVision kit, LEVD-AFC). The following applies: read-out: IC50 Casp4. On the procedure:
as §1, §2, §3, §4

The target in the next experiment is T3, Caspase-1 (Homo sapiens, UniProt P29466).
T3 construct: mixing the compounds with the respective active caspases; purchased BioVision K151-100
T3 sequence (P29466 120-297 limits assumed): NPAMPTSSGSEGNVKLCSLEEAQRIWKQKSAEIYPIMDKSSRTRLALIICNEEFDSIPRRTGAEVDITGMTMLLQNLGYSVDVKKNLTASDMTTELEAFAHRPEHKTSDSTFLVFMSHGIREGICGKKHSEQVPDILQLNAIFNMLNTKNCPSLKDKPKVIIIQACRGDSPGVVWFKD
T3 sequence (P29466 317-404 limits assumed): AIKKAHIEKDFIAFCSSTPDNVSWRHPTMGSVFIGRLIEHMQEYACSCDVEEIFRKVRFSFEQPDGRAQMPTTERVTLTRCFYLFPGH
The experiment is described as follows: Caspase-1 inhibitor screening assay (BioVision kit, YVAD-AFC). As to conditions: read-out: IC50 Casp1. As for the experimental part:
as §1, §2, §3, §4

For a further experiment, the target named is T4, Caspase-10 (Homo sapiens, UniProt Q92851).
T4 construct: mixing the compounds with the respective active caspases; purchased BioVision K160-100
T4 sequence (Q92851 220-415 limits assumed): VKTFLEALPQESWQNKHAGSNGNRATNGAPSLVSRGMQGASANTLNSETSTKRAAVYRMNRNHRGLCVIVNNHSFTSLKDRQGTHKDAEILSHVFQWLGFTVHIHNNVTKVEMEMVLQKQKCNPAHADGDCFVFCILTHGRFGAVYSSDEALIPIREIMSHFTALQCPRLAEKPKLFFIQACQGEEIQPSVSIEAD
T4 sequence (Q92851 416-521 limits assumed): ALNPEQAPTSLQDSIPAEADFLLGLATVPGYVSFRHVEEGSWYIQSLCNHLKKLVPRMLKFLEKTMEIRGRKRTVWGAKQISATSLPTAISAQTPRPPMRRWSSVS
The experiment is described as follows: Caspase-10 inhibitor screening assay (BioVision kit, AEVD-AFC). The following applies: read-out: IC50 Casp10. As for the experimental part: as §1, §2, §3, §4

Another experiment addresses T5, Caspase-3 (Homo sapiens, UniProt P42574).
T5 construct: mixing the compounds with the respective active caspases; purchased BioVision K153-100
T5 sequence (P42574 29-175 limits assumed): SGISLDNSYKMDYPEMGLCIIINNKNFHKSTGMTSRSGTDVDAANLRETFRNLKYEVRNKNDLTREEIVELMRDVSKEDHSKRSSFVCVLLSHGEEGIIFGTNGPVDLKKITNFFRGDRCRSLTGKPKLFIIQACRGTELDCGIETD
T5 sequence (P42574 176-277 limits assumed): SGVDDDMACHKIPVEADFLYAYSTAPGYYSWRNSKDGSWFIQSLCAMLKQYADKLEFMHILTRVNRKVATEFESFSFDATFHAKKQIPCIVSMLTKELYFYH
The experiment is described as follows: Caspase-3 inhibitor screening assay (BioVision kit, DEVD-AFC). The following applies: read-out: IC50 Casp3. On the procedure:
as §1, §2, §3, §4

The target in another experiment is T6, Caspase-5 (Homo sapiens, UniProt P51878).
T6 construct: mixing the compounds with the respective active caspases; purchased BioVision K155-100
T6 sequence (P51878 137-327 limits assumed): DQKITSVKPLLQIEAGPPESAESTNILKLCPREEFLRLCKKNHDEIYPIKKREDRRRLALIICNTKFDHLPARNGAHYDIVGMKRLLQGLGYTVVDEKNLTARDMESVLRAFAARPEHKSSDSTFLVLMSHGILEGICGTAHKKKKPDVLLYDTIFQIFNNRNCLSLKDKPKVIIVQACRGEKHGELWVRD
T6 sequence (P51878 347-434 limits assumed): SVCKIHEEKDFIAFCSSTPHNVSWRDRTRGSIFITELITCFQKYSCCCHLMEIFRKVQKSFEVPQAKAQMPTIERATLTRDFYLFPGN
The experiment is described as follows: Caspase-5 inhibitor screening assay (BioVision kit, WEHD-AFC). The following applies: read-out: IC50 Casp5. As for the experimental part: as §1, §2, §3, §4

Another experiment addresses T7, Caspase-6 (Homo sapiens, UniProt P55212).
T7 construct: mixing the compounds with the respective active caspases; purchased BioVision K156-100
T7 sequence (P55212 24-179 limits assumed): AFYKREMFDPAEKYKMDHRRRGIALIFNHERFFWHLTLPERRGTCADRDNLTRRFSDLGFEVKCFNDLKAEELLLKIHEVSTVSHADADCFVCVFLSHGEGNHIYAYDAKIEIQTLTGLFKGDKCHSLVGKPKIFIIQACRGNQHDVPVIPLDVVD
T7 sequence (P55212 194-293 limits assumed): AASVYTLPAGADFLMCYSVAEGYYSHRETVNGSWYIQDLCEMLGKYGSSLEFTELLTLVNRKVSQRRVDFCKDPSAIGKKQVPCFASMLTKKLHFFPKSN
Put plainly: Caspase-6 inhibitor screening assay (BioVision kit, VEID-AFC). On the procedure: as §1, §2, §3, §4

Another experiment addresses T8, Caspase-8 (Homo sapiens, UniProt Q14790).
T8 construct: mixing the compounds with the respective active caspases; purchased BioVision K158-100
The experiment is described as follows: Caspase-8 inhibitor screening assay (BioVision kit, IETD-AFC). The following applies: read-out: IC50 Casp8. As for the experimental part:
as §1, §2, §3, §4

A further experiment deals with T9, Caspase-9 (Homo sapiens, UniProt P55211).
T9 construct: purchased BioVision K159-100
T9 sequence (P55211 1-315 limits assumed): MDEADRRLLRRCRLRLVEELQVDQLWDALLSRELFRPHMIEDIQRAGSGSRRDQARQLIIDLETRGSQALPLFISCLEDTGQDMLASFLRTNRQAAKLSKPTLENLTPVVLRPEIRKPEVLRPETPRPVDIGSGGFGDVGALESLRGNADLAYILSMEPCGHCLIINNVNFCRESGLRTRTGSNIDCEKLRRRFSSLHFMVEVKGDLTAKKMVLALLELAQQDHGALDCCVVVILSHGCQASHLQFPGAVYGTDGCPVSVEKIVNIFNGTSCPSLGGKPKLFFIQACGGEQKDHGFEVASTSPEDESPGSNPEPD
T9 sequence (P55211 331-416 limits assumed): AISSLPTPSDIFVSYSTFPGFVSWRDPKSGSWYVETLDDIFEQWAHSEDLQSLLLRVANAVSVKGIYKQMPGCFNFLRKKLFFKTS
The experiment is described as follows: Caspase-9 inhibitor screening assay (BioVision kit, LEHD-AFC). As to conditions: read-out: IC50 Casp9. As for the experimental part: as §1, §2, §3, §4

T8 sequence (Q14790 217-374 limits assumed): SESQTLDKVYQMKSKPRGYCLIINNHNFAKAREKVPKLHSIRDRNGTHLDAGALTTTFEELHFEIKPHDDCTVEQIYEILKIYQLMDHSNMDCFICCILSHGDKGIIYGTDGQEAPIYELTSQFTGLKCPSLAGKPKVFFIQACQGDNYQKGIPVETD
T8 sequence (Q14790 385-479 limits assumed): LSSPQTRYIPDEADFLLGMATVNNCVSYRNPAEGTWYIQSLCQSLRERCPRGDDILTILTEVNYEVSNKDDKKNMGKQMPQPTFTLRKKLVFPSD

For `CCOC(=O)/C(Cl)=C/[C@H](CC(=O)O)NC(=O)[C@H]1CCCN1C(=O)[C@H](NC(=O)[C@H](CC(=O)O)NC(=O)OCc1ccccc1)C(C)(C)C` [Compound 57, Z-Asp-t-Leu-Pro-Asp αchlorovinyl Ethyl Vinyl Ester], the IC50 is 150 nM on Caspase-7; more than 100000 nM on Caspase-4; 7900 nM on Caspase-1; 50 nM at Caspase-10; 1270 nM at Caspase-3; 16000 nM on Caspase-5. For the same compound, on Caspase-6 (read-out: IC50 Casp6), the IC50 was more than 100000 nM.
As to `CCOC(=O)/C(Cl)=C/[C@H](CC(=O)O)NC(=O)[C@H]1CCCN1C(=O)[C@@H](NC(=O)c1ccc(N)c(Cl)c1)C(C)(C)C` [Compound 117, 4-amino-3-chlorobenzene carbonyl-t-Leu-Pro-Asp αchlorovinyl Ethyl Vinyl Ester], the IC50 was more than 100000 nM on Caspase-7; 1400 nM at Caspase-8; 70 nM at Caspase-4; 110 nM at Caspase-1; more than 100000 nM on Caspase-3; 900 nM at Caspase-5. Further, the IC50 at Caspase-6 (read-out: IC50 Casp6) was more than 100000 nM.
As for `CCC(C)[C@H](NC(=O)[C@H](CCC(=O)O)NC(=O)[C@@H](NC(=O)OCc1ccccc1)C(C)C)C(=O)N[C@H](/C=C(\Cl)S(C)(=O)=O)CC(=O)O` (stereo partly drawn) [Compound 123, Z-Val-Glu-Ile-Asp-achlorovinyl methyl vinyl sulfone], the IC50 at Caspase-8 stood at 530 nM; on Caspase-4, 1800 nM; on Caspase-1, 3880 nM; at Caspase-10 it was 190 nM; at Caspase-3, 1340 nM; at Caspase-5 it was 4200 nM. Moreover, the values for the IC50 on Caspase-6 (read-out: inhibition (IC50) against Caspase-6) and at Caspase-9 were 229 nM and 6400 nM, respectively.

The term IC50 denotes the concentration that gives 50% inhibition.
